Assays:
[1] = system: S. pneumoniae D39V; assay: fitness (endpoint OD595 vs no drug) (fraction); higher = more growth
Method in brief: (§1)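 At 37 °C, bacteria in TSB, LB Lennox or CY were grown in 384-well plates from a starting OD595 of 0.01. OD595 was measured every 30 min for 14 h, with the first reading used as background. Fitness is the optical density at the switch to stationary phase as a fraction of the robust mean of no-drug control wells, capped at 1.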

[2] = system: B. subtilis 168; assay: as above
Method in brief: as §1
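Also: OD595 on entry to stationary phase over no-drug wells; at most 1.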

CC(=O)Oc1ccccc1C(=O)O [Acetylsalicylic acid] + O=C(O)c1cn(C2CC2)c2cc(N3CCNCC3)c(F)cc2c1=O [Ciprofloxacin]
fitness, [1]
Conditions	first compound 250 µg/mL	first compound 500 µg/mL	first compound 1000 µg/mL
partner 0.125 µg/mL	0.963	0.907	0.863
partner 0.25 µg/mL	0.883	0.904	0.833
partner 0.5 µg/mL	0.835	0.835	0.719

CN(C)[C@@H]1C(O)=C(C(N)=O)C(=O)[C@@]2(O)C(O)=C3C(=O)c4c(O)ccc(Cl)c4[C@@](C)(O)[C@H]3C[C@@H]12 [Chlortetracycline] + C/C(=C\C(=O)OCCCCCCCCC(=O)O)C[C@@H]1OC[C@H](C[C@@H]2O[C@H]2[C@@H](C)[C@H](C)O)[C@@H](O)[C@H]1O [Pseudomonic acid]
fitness, [1]
Conditions	first compound 0.012 µg/mL	first compound 0.024 µg/mL	first compound 0.048 µg/mL	first compound 0.375 µg/mL	first compound 0.75 µg/mL	first compound 1.5 µg/mL
partner 0.03 µg/mL	0.884	0.853	0.829	0.0434	0.0614	0.0477
partner 0.06 µg/mL	0.78	0.75	0.779	0.0787	0.0801	0.0542
partner 0.12 µg/mL	0.57	0.586	0.62	0.0891	0.0486	0.0665

CN(C)[C@@H]1C(O)=C(C(N)=O)C(=O)[C@@]2(O)C(O)=C3C(=O)c4c(O)ccc(Cl)c4[C@@](C)(O)[C@H]3C[C@@H]12 [Chlortetracycline] + CC1=C(C(=O)O)N2C(=O)[C@@H](NC(=O)[C@H](N)c3ccccc3)[C@H]2SC1 [Cephalexin]
fitness
Conditions	first compound 0.0475 µg/mL	first compound 0.095 µg/mL	first compound 0.19 µg/mL	first compound 0.375 µg/mL	first compound 0.75 µg/mL	first compound 1.5 µg/mL
[1], partner 1 µg/mL	–	–	–	0.0846	0.0412	0.0388
[1], partner 2 µg/mL	–	–	–	0.0341	0.0584	0.0428
[1], partner 4 µg/mL	–	–	–	0.0429	0.0665	0.0379
[2], partner 0.125 µg/mL	0.922	0.708	0.437	–	–	–
[2], partner 0.25 µg/mL	0.918	0.818	0.534	–	–	–
[2], partner 0.5 µg/mL	0.852	0.811	0.551	–	–	–

fitness, one replicate
Conditions	first compound 0.012 µg/mL	first compound 0.024 µg/mL	first compound 0.0475 µg/mL	first compound 0.048 µg/mL	first compound 0.095 µg/mL	first compound 0.19 µg/mL
[1], partner 0.125 µg/mL	0.933	0.86	–	0.797	–	–
[1], partner 0.25 µg/mL	0.872	0.809	–	0.762	–	–
[1], partner 0.5 µg/mL	0.883	0.84	–	0.706	–	–
[2], partner 1 µg/mL	–	–	0.936	–	0.827	0.606

CN(C)[C@@H]1C(O)=C(C(N)=O)C(=O)[C@@]2(O)C(O)=C3C(=O)c4c(O)ccc(Cl)c4[C@@](C)(O)[C@H]3C[C@@H]12 [Chlortetracycline] + CO/N=C(\C(=O)N[C@@H]1C(=O)N2C(C(=O)O)=C(COC(N)=O)CS[C@H]12)c1ccco1 [Cefuroxime]
fitness, [2]
Conditions	first compound 0.0475 µg/mL	first compound 0.095 µg/mL	first compound 0.19 µg/mL
partner 0.04875 µg/mL	0.667	0.593	0.162
partner 0.0975 µg/mL	0.601	0.519	0.135
partner 0.195 µg/mL	0.429	0.312	0.0926

fitness, [2], one replicate
Conditions	partner 0.39 µg/mL	partner 0.78 µg/mL	partner 1.562 µg/mL	partner 3.125 µg/mL	partner 6.25 µg/mL
first compound 0.0475 µg/mL	0.346	0.362	0.303	0.275	0.21
first compound 0.095 µg/mL	0.207	0.145	0.103	0.0825	0.0597
first compound 0.19 µg/mL	0.0621	0.0481	0.038	0.0341	0.0237

CN(C)[C@@H]1C(O)=C(C(N)=O)C(=O)[C@@]2(O)C(O)=C3C(=O)c4c(O)ccc(Cl)c4[C@@](C)(O)[C@H]3C[C@@H]12 [Chlortetracycline] + CO[C@@H]1[C@@H](OC(N)=O)[C@@H](O)[C@H](Oc2ccc3c(O)c(NC(=O)c4ccc(O)c(CC=C(C)C)c4)c(=O)oc3c2C)OC1(C)C [Novobiocin]
fitness, [2]
Conditions	first compound 0.0475 µg/mL	first compound 0.095 µg/mL	first compound 0.19 µg/mL
partner 0.0125 µg/mL	0.909	0.765	0.469
partner 0.025 µg/mL	0.623	0.653	0.336
partner 0.05 µg/mL	0.986	0.844	0.398

fitness, [2], one replicate
Conditions	partner 0.1 µg/mL	partner 0.125 µg/mL	partner 0.2 µg/mL	partner 0.25 µg/mL	partner 0.5 µg/mL
first compound 0.0475 µg/mL	0.948	0.928	0.934	0.966	0.648
first compound 0.095 µg/mL	0.863	0.839	0.936	0.811	0.577
first compound 0.19 µg/mL	0.529	0.548	0.52	0.537	0.323

— the supplement of paper PMC10627819
